Molecules are shown by their SMILES. Values joined by “and” are separate entries in the source; they are usually repeats but may differ in a detail not shown here. Identical values can stand only once.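 All cell lines were grown in 96-well plates and treated with compound for 48 hours. GI50 marks 50% less growth.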 Active and inactive are the calls of the source. Cut-off read from the data, not from the text of the source: active = GI50 up to about 1.1 µM and inactive = higher.

Test systems include CAKI-1; OVCAR-3; RPMI-8226; MDA-MB-231; HOP-62; SN12C; CCRF-CEM; T47D; SR; A498; HCC 2998; ACHN; IGROV-1; HT-29; Malme-3M; COLO 205; NCI-H522; SW-620; UACC-62.
Assay in all cases: inhibition of tumour cell growth, NCI panel, 48 h

In the case of `N=C(N)N/N=C(\c1ccc(F)cc1)c1ccc(C(F)(F)F)cc1`, the GI50 was 0.451 µM (active) in the experiment with CAKI-1; 0.33 µM (active) in the experiment on OVCAR-3; 0.376 µM (active) with RPMI-8226; 0.33 µM (active) in the experiment on MDA-MB-231; 0.273 µM (active) with HOP-62; 0.64 µM (active) in the experiment with SN12C. Moreover, the GI50 was 0.329 µM (active) in the experiment with CCRF-CEM; 2.08 µM (inactive) in the experiment with T47D; 0.284 µM (active) with SR; < 0.01 µM (active) in the experiment on A498; 0.542 µM (active) in the experiment on HCC 2998; 0.611 µM (active) with ACHN. In addition, the GI50 with IGROV-1 was 0.284 µM (active); in the experiment with HT-29, 0.412 µM (active); in the experiment on Malme-3M it was 0.851 µM (active); in the experiment on COLO 205 it was 0.294 µM (active); in the experiment on NCI-H522, 0.135 µM (active); in the experiment with SW-620 it was 0.254 µM (active). Moreover, in the experiment on UACC-62, the GI50 is 0.282 µM (active).
Regarding `CC(=O)OCC1OC(n2c(C)c(C)cc(C#N)c2=S)C(OC(C)=O)C(OC(C)=O)C1OC(C)=O` (stereo unspecified), the GI50 is > 100 µM (inactive) in the experiment on CAKI-1; > 100 µM (inactive) in the experiment on OVCAR-3; > 100 µM (inactive) in the experiment on RPMI-8226; > 100 µM (inactive) in the experiment with MDA-MB-231; > 100 µM (inactive) and 91 µM (inactive) in the experiment with HOP-62; > 100 µM (inactive) in the experiment on SN12C. For the same compound, the GI50 in the experiment with CCRF-CEM was > 10 µM (inactive); with T47D it was > 100 µM (inactive); with SR, > 100 µM (inactive); in the experiment on A498, > 100 µM (inactive); with HCC 2998 it was > 100 µM (inactive); in the experiment with ACHN it was > 100 µM (inactive). Moreover, the GI50 with IGROV-1 is > 100 µM (inactive); with HT-29, > 100 µM (inactive); in the experiment with Malme-3M, > 100 µM (inactive); in the experiment with NCI-H522, > 100 µM (inactive) and 52.4 µM (inactive); in the experiment with SW-620 it was > 100 µM (inactive); with UACC-62 it was 65.2 µM (inactive).
`COc1cc(OC)c2nc3occc3c(OC)c2c1`: the GI50 with CAKI-1 was 77.4 µM (inactive); with OVCAR-3, > 100 µM (inactive); in the experiment on RPMI-8226, 27.7 µM (inactive); in the experiment on MDA-MB-231, > 100 µM (inactive); with HOP-62 it was > 100 µM (inactive); in the experiment with SN12C, 71.1 µM (inactive). The GI50 is > 100 µM (inactive) in the experiment on CCRF-CEM; 61.2 µM (inactive) in the experiment with T47D; 55.7 µM (inactive) in the experiment on SR; > 100 µM (inactive) in the experiment on A498; 41.6 µM (inactive) with HCC 2998; 41.7 µM (inactive) in the experiment on ACHN. The GI50 in the experiment with IGROV-1, in the experiment on HT-29, in the experiment on Malme-3M, with COLO 205, with NCI-H522 and in the experiment on SW-620 was > 100 µM (inactive) in each case. In the experiment on UACC-62, the GI50 was > 100 µM (inactive).
As to `NC(=O)c1nnc2cc(F)c(F)cc2c1N`, the GI50 in the experiment with CAKI-1 was 61.2 µM (inactive); with OVCAR-3, > 100 µM (inactive); in the experiment with RPMI-8226 it was > 100 µM (inactive); in the experiment with MDA-MB-231, 44.1 µM (inactive); in the experiment with HOP-62 it was 18.5 µM (inactive); in the experiment on SN12C, 84.9 µM (inactive). Moreover, the GI50 was > 100 µM (inactive) in the experiment on CCRF-CEM; 40.7 µM (inactive) with T47D; > 100 µM (inactive) with SR; 41.1 µM (inactive) with A498; > 100 µM (inactive) with HCC 2998; 52.1 µM (inactive) in the experiment with ACHN. Moreover, the GI50 in the experiment with IGROV-1 is 47.5 µM (inactive); in the experiment on HT-29 it was > 100 µM (inactive); in the experiment with Malme-3M it was 29.7 µM (inactive); in the experiment with COLO 205, > 100 µM (inactive); in the experiment with NCI-H522, 18.8 µM (inactive); in the experiment with SW-620 it was > 100 µM (inactive). For the same compound, the GI50 in the experiment on UACC-62 is 31.3 µM (inactive).
Consider `CC(C)(C)OC/C=C1\C(=O)O[C@H]2C[C@@H](O[Si](C)(C)C(C)(C)C)C[C@@H]12`, for which the GI50 with CAKI-1 was > 100 µM (inactive); with OVCAR-3, 49.9 µM (inactive); with RPMI-8226, 46 µM (inactive); in the experiment on MDA-MB-231 it was > 100 µM (inactive); in the experiment with HOP-62, 85.3 µM (inactive); with SN12C it was > 100 µM (inactive). Besides, the GI50 with CCRF-CEM was 33.9 µM (inactive); in the experiment on T47D it was 27.9 µM (inactive); in the experiment on SR, 37.3 µM (inactive); with A498, > 100 µM (inactive); in the experiment with HCC 2998 it was > 100 µM (inactive); in the experiment with ACHN, > 100 µM (inactive). Moreover, the GI50 in the experiment with IGROV-1 was > 100 µM (inactive); in the experiment on HT-29, 73.6 µM (inactive); in the experiment on Malme-3M, > 100 µM (inactive); in the experiment on COLO 205, > 100 µM (inactive); in the experiment on NCI-H522, 33.5 µM (inactive); in the experiment with SW-620, > 100 µM (inactive).
Regarding `Cc1ccc(S(=O)(=O)N2CCN3C(=O)c4ccccc4C32c2ccc(F)cc2)cc1` (stereo unspecified), the GI50 in the experiment on CAKI-1 was 57.3 µM (inactive); in the experiment with OVCAR-3, > 100 µM (inactive); with RPMI-8226 it was 23.8 µM (inactive); with MDA-MB-231, > 100 µM (inactive); in the experiment with HOP-62, > 100 µM (inactive); in the experiment with SN12C, 32.7 µM (inactive). The GI50 in the experiment with CCRF-CEM was 35.1 µM (inactive); in the experiment with T47D, 56.6 µM (inactive); in the experiment on SR, 16.9 µM (inactive); in the experiment on A498 it was 16.2 µM (inactive); with HCC 2998 it was > 100 µM (inactive); with ACHN, 95.1 µM (inactive). Besides, the GI50 in the experiment with IGROV-1 was 22.9 µM (inactive); with HT-29, 40.6 µM (inactive); in the experiment on Malme-3M, > 100 µM (inactive); in the experiment on COLO 205 it was 34.9 µM (inactive); with NCI-H522, 55.8 µM (inactive); in the experiment with SW-620 it was 87.9 µM (inactive). In the experiment with UACC-62, the GI50 is 44.9 µM (inactive).
On to `COC(=O)C1=CC2CCCC1(O)C(C(C)=O)C2` (stereo unspecified), for which the GI50 with CAKI-1 was > 100 µM (inactive); with OVCAR-3, > 100 µM (inactive); in the experiment on RPMI-8226 it was 25.1 µM (inactive); with MDA-MB-231, 46.6 µM (inactive); in the experiment with HOP-62, > 75 µM (inactive); in the experiment with SN12C, > 100 µM (inactive). The GI50 in the experiment with CCRF-CEM is 21.1 µM (inactive); with T47D, 27.4 µM (inactive); with SR it was 31.3 µM (inactive); in the experiment with A498, > 100 µM (inactive); with HCC 2998 it was > 100 µM (inactive); with ACHN it was > 100 µM (inactive). Besides, the GI50 in the experiment with IGROV-1 was 15.4 µM (inactive); with HT-29 it was > 100 µM (inactive); in the experiment with Malme-3M, > 100 µM (inactive); with COLO 205, 39.8 µM (inactive); with NCI-H522, 15.5 µM (inactive); in the experiment on SW-620 it was > 61.8 µM (inactive). Moreover, the GI50 in the experiment on UACC-62 was > 94.4 µM (inactive).
On to `O=C1Nc2ccc(Cl)cc2C(=O)N2CCC[C@@H]12`, for which the GI50 in the experiment with CAKI-1, with OVCAR-3, in the experiment with RPMI-8226, in the experiment with MDA-MB-231, in the experiment with HOP-62 and with SN12C was > 100 µM (inactive) each time. Moreover, the GI50 with T47D, with SR, in the experiment with A498, with HCC 2998, with ACHN and with IGROV-1 was > 100 µM (inactive) each time. Moreover, the GI50 in the experiment with HT-29, with Malme-3M, with COLO 205, in the experiment on NCI-H522, with SW-620 and with UACC-62 was > 100 µM (inactive) each time.
With `CCCCCC(=O)NC(=S)Nc1nnn[nH]1`, the GI50 with CAKI-1, in the experiment with OVCAR-3, in the experiment on RPMI-8226, in the experiment on MDA-MB-231, in the experiment on HOP-62 and in the experiment on SN12C was > 100 µM (inactive) throughout. Besides, the GI50 with CCRF-CEM was > 100 µM (inactive); in the experiment on T47D, > 100 µM (inactive); with SR it was > 100 µM (inactive); with A498, > 100 µM (inactive); in the experiment on HCC 2998, > 100 µM (inactive); in the experiment on ACHN it was > 10 µM (inactive). The GI50 in the experiment on IGROV-1, in the experiment with Malme-3M, in the experiment on COLO 205, in the experiment with NCI-H522, in the experiment on SW-620 and with UACC-62 was > 100 µM (inactive) throughout.
`C/C=C1\CN2CCC34c5ccccc5N(C)C35OCC4(C(=O)OC)C1CC25` (stereo unspecified): the GI50 was 99.3 µM (inactive) in the experiment with CAKI-1; 76.2 µM (inactive) in the experiment with OVCAR-3; 24.7 µM (inactive) with RPMI-8226; > 100 µM (inactive) with MDA-MB-231; 65.8 µM (inactive) in the experiment with HOP-62; 75.7 µM (inactive) in the experiment with SN12C. Besides, the GI50 with CCRF-CEM is 42.7 µM (inactive); in the experiment with T47D, 28.8 µM (inactive); in the experiment on SR, 26.2 µM (inactive); in the experiment with A498, > 100 µM (inactive); in the experiment with HCC 2998, 14 µM (inactive); with ACHN, 90.4 µM (inactive). Further, the GI50 was 41.6 µM (inactive) in the experiment with IGROV-1; 16 µM (inactive) in the experiment with COLO 205; 47.8 µM (inactive) in the experiment with NCI-H522; 41.6 µM (inactive) in the experiment with SW-620; 61 µM (inactive) in the experiment with UACC-62.
As to `N#Cc1c(N)c2c(c(-c3ccccc3)c1-c1ccccc1)C(=O)N(NC(=O)c1ccccc1)C2=O`, the GI50 with CAKI-1 is > 100 µM (inactive); in the experiment on OVCAR-3 it was 31 µM (inactive); in the experiment with RPMI-8226, 31.2 µM (inactive); in the experiment with MDA-MB-231, > 100 µM (inactive); in the experiment with SN12C it was > 100 µM (inactive); in the experiment with CCRF-CEM, 42.3 µM (inactive). Further, the GI50 is 32.1 µM (inactive) in the experiment on T47D; 44.5 µM (inactive) with SR; 41.9 µM (inactive) in the experiment on A498; > 100 µM (inactive) with HCC 2998; > 100 µM (inactive) in the experiment with ACHN; 61.4 µM (inactive) with IGROV-1. Further, the GI50 with Malme-3M was > 100 µM (inactive); with COLO 205, > 100 µM (inactive); in the experiment on NCI-H522, 81.7 µM (inactive); in the experiment on SW-620, > 100 µM (inactive); with UACC-62, 75.9 µM (inactive).
